Assays:
PD20 FANCD2−/− cells = assay: Clonogenic assay for cisplatin sensitivity; format: cell-based, human; details: FANCD2−/− cells (empty vector)
Description: (§1) The genetic interaction between FANCD2 and DNA2 was examined in the repair of cisplatin- or formaldehyde-induced damage. Using PD20 FANCD2^−/− cells complemented with wild-type FANCD2 or an empty vector, DNA2 was depleted using shRNA techniques (FIG. 2A). As shown, DNA2 was reduced to levels undetectable by western blotting. The cell lines were exposed to cisplatin, and a clonogenic assay was performed (FIG. 2B). […] This rescue is stronger than previously reported, consistent with lower residual DNA2 levels detected by western blotting in the knockdowns (Karanja et al., 2012, Cell Cycle, 11:3983-3996, the entire contents of which are herein incorporated by reference.)
(§2) For acute exposure, formaldehyde (0, 40, 80, 160, 320 μM) was added for 4 h in PBS. Cells were washed in PBS and grown for 5 days. For chronic exposure, cells were continuously grown in formaldehyde (0, 30, 60, 90, 120 μM) for 6 days. To determine viability, cells were fixed and stained with crystal violet and scanned with a Licor Odyssey scanner (LiCor Biosciences). The surviving fraction was determined by comparing treated with the non-treated controls. […] Surviving fraction was determined by comparing treated with the non-treated controls.

[1] = tested on: PD20 FANCD2−/− cells complemented with wild-type FANCD2; assay: Clonogenic assay for cisplatin sensitivity; format: cell-based, human
Description: as §1, §2

N.N.[Cl][Pt][Cl] [cisplatin]
sensitivity of cells to cisplatin (clonogenic survival) (PD20 FANCD2−/− cells): very sensitive | sensitivity of cells to cisplatin (clonogenic survival) [1]: resistant
